The text below walks through data of US8916602B2, “Fusarisetin compounds, and use thereof” (Korea Research Institute of Bioscience and Biotechnology, priority 2010, dated 2014).

Common to all, as to type: cell-based
For assay [1], the system named is human breast cancer cell line (MDA-MB-231). The assay can be described thus: Inhibition of cancer cell proliferation (WST-8 cell survival), MDA-MB-231. As to conditions: MDA-MB-231 cell line, 48 hours culture with compound, WST-8, OD450. Here is the method: (§1) Following experiment was performed to investigate the inhibitory activity of the compounds 1 and 2 of the present invention on the proliferation of cancer cells.
(§2) Particularly, human breast cancer cell line (MDA-MB-231, 5.0×10^3 cells per well), mouse fibroblast cell line (3Y1, 5.0×10^3 cells per well), and human liver cancer cell line (Hep3B, 5.0×10^3 cells per well) were cultured respectively in DMEM (Dulbecco's modification of Eagles medium, supplemented with 10% FBS). And human chronic myeloid leukemia cell line (K562, 3.0×10^4 cells per well) and human promyelocytic leukemia cell line (HL-60, 1.0×10^5 cells per well) were cultured respectively in RPMI 1640 (Roswell Park Memorial Institute 1640 medium, supplemented with 10% FBS). Each cell line cultured above was treated with different concentrations of the compound 1 and compound 2 (100 μg/ml, 30 μg/ml, 10 μg/ml, 3 μg/ml, and 1 μg/ml), followed by culture in a 5% CO2 incubator for 48 hours at 37° C. WST-8 reagent (2-(2-methoxy-4-nitrophenyl)-3-(4-nitrophenyl)-5-(2,4-disulfophenyl)-2H-tetrazolium, monosodium salt) producing high sensitive water soluble formazan was added thereto, followed by further culture for 24 hours. OD450 was measured to calculate cell survival rate.
In general terms: Tetrazolium assays rely on reduction of a dye to a coloured formazan, in cell work by metabolically active cells.

In assay [2] the test system is human chronic myeloid leukemia cell line (K562). The assay can be described thus: Inhibition of cancer cell proliferation (WST-8 cell survival), K562. As to conditions: 48 hours culture with compound, WST-8, OD450. On the procedure:
as §1, §2

For assay [3], the system named is human breast cancer cells (MDA-MB-231 cells). The assay can be described thus: Inhibition of cancer cell metastasis, trans-well chamber (Matrigel Invasion Chamber). Particulars: migration induced by 10% FBS, 24 hours, tested at 30, 10 and 3 μg/ml. Here is the method:
Trans-well chamber (BioCoat™ Matrigel™ Invasion Chamber, pore size 8 μm, BD Biosciences, Bedford, Mass.) was used for the investigation of inhibitory activity of the compounds of the present invention on cancer cell metastasis. Particularly, human breast cancer cells (MDA-MB-231 cells) were distributed on the upper part of the chamber at the density of 1.0×10^5 cells per well. DMEM (Dulbecco's modification of Eagles medium, serum-free) was used for the culture. 30 minutes later, the compounds 1 and 2 were added to the upper part of the chamber at different concentrations of 30 μg/ml, 10 μg/ml, and 3 μg/ml, respectively. 30 minutes later, 10% FBS was added to the bottom of the chamber, followed by culture in a 5% CO2 incubator at 37° C. for 24 hours. 24 hours later, the cells migrated through porous membrane which had been induced by 10% FBS in the bottom of the chamber were fixed with 100% MeOH, followed by staining with Wright stain. Upon completion of the staining, the migrated cells were counted under microscope.

In assay [4] the test system is human promyelocytic leukemia cell line (HL-60). The assay can be described thus: Inhibition of cancer cell proliferation (WST-8 cell survival), HL-60. Particulars: HL-60 cell line, 48 hours culture with compound, WST-8, OD450. On the procedure: as §1, §2
The test system of assay [5] is human liver cancer cell line (Hep3B). The experiment in a line: Inhibition of cancer cell proliferation (WST-8 cell survival), Hep3B. As to conditions: 48 hours culture with compound, WST-8, OD450. On the procedure:
as §1, §2

Assay [6] deals with mouse fibroblast cell line (3Y1). The experiment in a line: Inhibition of cell proliferation (WST-8 cell survival), 3Y1. Particulars: 3Y1 cell line, 48 hours culture with compound, WST-8, OD450. Here is the method: as §1, §2

Converted amounts (≈) assume the structure as drawn.

Usually IC50 stands for the midpoint of a concentration-inhibition curve. In the case of `C[C@H]1CC[C@H]2[C@@H](C=C[C@@H]3[C@H]4[C@H](C)O[C@]5(O)[C@@H](CO)N(C)C(=O)[C@]45C(=O)[C@@]32C)C1` [compound 2, fusarisetin B], the half-inhibitory concentration (IC50) in assay [1] worked out at 76.5 µg/mL (≈ 196 µM); in assay [2], 49.3 µg/mL (≈ 127 µM); in assay [4], 29.4 µg/mL (≈ 75.5 µM); in assay [5], 27.2 µg/mL (≈ 69.8 µM); in assay [6], 62.2 µg/mL (≈ 160 µM). In addition, the “ED100 indicating the concentration capable of inhibiting metastasis of human breast cancer cell line by 100%” value in assay [3] worked out at 10 µg/mL.

As for `C[C@H]1CC[C@H]2[C@@H](C=C[C@@H]3[C@H]4[C@@H](C)O[C@]5(O)[C@@H](CO)N(C)C(=O)[C@]45C(=O)[C@@]32C)C1` [compound 1, fusarisetin A], the half-inhibitory concentration (IC50) in assay [1] came out at 69.5 µg/mL (≈ 178 µM); in assay [2], 61.3 µg/mL (≈ 157 µM); in assay [4] it was 57.7 µg/mL (≈ 148 µM); in assay [5], 34.7 µg/mL (≈ 89.1 µM); in assay [6] it was 67.5 µg/mL (≈ 173 µM). Besides, the “ED100 indicating the concentration capable of inhibiting metastasis of human breast cancer cell line by 100%” value in assay [3] came to 10 µg/mL.
